Assay results published in patent US9937225B2, “Topical formulations and uses thereof” (OCULAR TECHNOLOGIES SARL, priority 2012, dated 2018).

Test: Visual appearance of mixed nanomicellar formulation
Type: physicochemical
Settings: for Final formulation / Resuspend in water / Final formulation (make up with 2X buffer containing 0.01% Oc-40): 1001 4 wt %; for Result: solvent evaporation, HCO-60 4 wt %, Octoxynol-40 0.01 wt %
Protocol: Mixed nanomicellar formulation encapsulating compound 1001 was prepared by solvent evaporation method in two steps: 1) Preparation of basic formulation and 2) rehydration. In step one, compound 1001, HCO-60 and octoxynol-40 were dissolved separately in 0.3 mL of ethyl acetate. These three solutions were mixed together in 15-mL centrifuge tube. The resultant mixture was vortexed to obtain a homogenous solution. Ethyl acetate solvent was removed with speed vacuum to obtain a solid thin film. The residue was kept overnight under high vacuum at room temperature to remove residual organic solvent. In step two, the resultant thin film was hydrated with 1 mL of double distilled deionized water by vortexing the solution. The rehydrated formulation was suspended in 2× phosphate buffer solution, (pH 6.5). It was filtered through 0.2 μm nylon filter membrane to remove the unentrapped drug aggregates and other foreign particulates. […]
The preparation of MNF encapsulating compound 1001 (neat oil) can be divided into two steps. As an example for the development of 3.0 wt % HCO-40 or HCO-60 MNF encapsulating 0.4% compound 1001 is described below. […] To this melt polymer compound 1001 (˜20 mg), thermostated at 40° C., was added and mixed for homogenous distribution. […] (in refrigerator).
This aqueous solution was allowed to reach room temperature, under natural conditions. The pH of the solution was adjusted to 5.5 and the volume was made up with 2× phosphate buffer saline (pH 5.5) containing octoxynol-40 (0.01 wt %) and PVP-K-90 (1.2 wt %). The formulation was filtered through 0.2 μm nylon filter to remove any foreign material and obtain a clear homogenous aqueous RX-1001 formulation.
The results obtained for physical appearance of the mixture, different phases, at different temperatures and appearance of final formulation are summarized in Tables 2a-2c. […]

[1] = melt at 40° C., cooled to room temperature, HCO-40 0.5 wt %
[2] = melt at 40° C., cooled to room temperature, HCO-40 0.75 wt %
[3] = melt at 40° C., cooled to room temperature, HCO-40 1.0 wt %
[4] = melt at 40° C., cooled to room temperature, HCO-40 1.25 wt %
[5] = melt at 40° C., cooled to room temperature, HCO-40 1.5 wt %
[6] = melt at 40° C., cooled to room temperature, HCO-40 1.75 wt %
[7] = melt at 40° C., cooled to room temperature, HCO-40 2.0 wt %
[8] = melt at 40° C., cooled to room temperature, HCO-40 2.25 wt %
[9] = melt at 40° C., cooled to room temperature, HCO-40 2.5 wt %
[10] = melt at 40° C., cooled to room temperature, HCO-40 2.75 wt %
[11] = melt at 40° C., cooled to room temperature, HCO-40 3.0 wt %
[12] = melt at 40° C., cooled to room temperature, HCO-40 4.0 wt %

Final formulation [1]: Emulsion
Resuspend in water [1]: Emulsion
Final formulation [2]: Emulsion
Resuspend in water [2]: Emulsion
Final formulation [3]: Emulsion
Resuspend in water [3]: Emulsion
Final formulation [4]: Emulsion
Resuspend in water [4]: Emulsion
Final formulation [5]: Emulsion
Resuspend in water [5]: Emulsion
Final formulation [6]: Emulsion
Resuspend in water [6]: Emulsion
Final formulation [7]: Emulsion
Resuspend in water [7]: Emulsion
Final formulation [8]: Emulsion
Resuspend in water [8]: Emulsion
Final formulation [9]: Yellow color
Resuspend in water [9]: Yellow
Final formulation [10]: Pale yellow
Resuspend in water [10]: Pale yellow
Final formulation [11]: Clear
Resuspend in water [11]: Clear
Final formulation [12]: Clear
Resuspend in water [12]: Clear
Resuspend in water (melt cooled to 25° C., placed at 4° C., back to room temperature, water at 40° C., HCO-40 0.5 wt %): Emulsion
Resuspend in water (melt cooled to 25° C., placed at 4° C., back to room temperature, water at 40° C., HCO-40 0.75 wt %): Emulsion
Resuspend in water (melt cooled to 25° C., placed at 4° C., back to room temperature, water at 40° C., HCO-40 1.0 wt %): Emulsion
Resuspend in water (melt cooled to 25° C., placed at 4° C., back to room temperature, water at 40° C., HCO-40 1.25 wt %): Emulsion
Resuspend in water (melt cooled to 25° C., placed at 4° C., back to room temperature, water at 40° C., HCO-40 1.5 wt %): Emulsion
Resuspend in water (melt cooled to 25° C., placed at 4° C., back to room temperature, water at 40° C., HCO-40 1.75 wt %): Emulsion
Resuspend in water (melt cooled to 25° C., placed at 4° C., back to room temperature, water at 40° C., HCO-40 2.0 wt %): Emulsion
Resuspend in water (melt cooled to 25° C., placed at 4° C., back to room temperature, water at 40° C., HCO-40 2.25 wt %): Emulsion
Resuspend in water (melt cooled to 25° C., placed at 4° C., back to room temperature, water at 40° C., HCO-40 2.5 wt %): Yellow
Resuspend in water (melt cooled to 25° C., placed at 4° C., back to room temperature, water at 40° C., HCO-40 2.75 wt %): Pale yellow
Resuspend in water (melt cooled to 25° C., placed at 4° C., back to room temperature, water at 40° C., HCO-40 3.0 wt %): Clear
Resuspend in water (melt cooled to 25° C., placed at 4° C., back to room temperature, water at 40° C., HCO-40 4.0 wt %): Clear
Final formulation (melt cooled to 25° C., placed at 4° C., back to room temperature, HCO-40 0.5 wt %): Emulsion
Final formulation (melt cooled to 25° C., placed at 4° C., back to room temperature, HCO-40 0.75 wt %): Emulsion
Final formulation (melt cooled to 25° C., placed at 4° C., back to room temperature, HCO-40 1.0 wt %): Emulsion
Final formulation (melt cooled to 25° C., placed at 4° C., back to room temperature, HCO-40 1.25 wt %): Emulsion
Final formulation (melt cooled to 25° C., placed at 4° C., back to room temperature, HCO-40 1.5 wt %): Emulsion
Final formulation (melt cooled to 25° C., placed at 4° C., back to room temperature, HCO-40 1.75 wt %): Emulsion
Final formulation (melt cooled to 25° C., placed at 4° C., back to room temperature, HCO-40 2.0 wt %): Emulsion
Final formulation (melt cooled to 25° C., placed at 4° C., back to room temperature, HCO-40 2.25 wt %): Emulsion
Final formulation (melt cooled to 25° C., placed at 4° C., back to room temperature, HCO-40 2.5 wt %): Yellow color
Final formulation (melt cooled to 25° C., placed at 4° C., back to room temperature, HCO-40 2.75 wt %): Very pale yellow
Final formulation (melt cooled to 25° C., placed at 4° C., back to room temperature, HCO-40 3.0 wt %): Clear
Final formulation (melt cooled to 25° C., placed at 4° C., back to room temperature, HCO-40 4.0 wt %): Clear
Final formulation (make up with 2X buffer containing 0.01% Oc-40) (melt method, HCO-60 1.0 wt %): Emulsion
Resuspend in water (melt method, HCO-60 1.0 wt %, water at 40°): Emulsion
Final formulation (make up with 2X buffer containing 0.01% Oc-40) (melt method, HCO-60 2.0 wt %): Pale yellow
Resuspend in water (melt method, HCO-60 2.0 wt %, water at 40°): Forms pale
Final formulation (make up with 2X buffer containing 0.01% Oc-40) (melt method, HCO-60 2.25 wt %): Pale yellow
Resuspend in water (melt method, HCO-60 2.25 wt %, water at 40°): Forms pale
Final formulation (make up with 2X buffer containing 0.01% Oc-40) (melt method, HCO-60 2.5 wt %): Pale yellow
Resuspend in water (melt method, HCO-60 2.5 wt %, water at 40°): Forms very
Final formulation (make up with 2X buffer containing 0.01% Oc-40) (melt method, HCO-60 2.75 wt %): Clear solution
Resuspend in water (melt method, HCO-60 2.75 wt %, water at 40°): Forms very
Final formulation (make up with 2X buffer containing 0.01% Oc-40) (melt method, HCO-60 3.0 wt %): Clear solution
Resuspend in water (melt method, HCO-60 3.0 wt %, water at 40°): Clear solution
Final formulation (make up with 2X buffer containing 0.01% Oc-40) (melt method, HCO-60 3.5 wt %): Clear solution
Resuspend in water (melt method, HCO-60 3.5 wt %, water at 40°): Clear solution
Final formulation (make up with 2X buffer containing 0.01% Oc-40) (melt method, HCO-60 4.0 wt %): Clear solution
Resuspend in water (melt method, HCO-60 4.0 wt %, water at 40°): Clear solution
Structure (SMILES): C#CC[C@@H](O)/C=C/C=C/C#C[C@@H](O)CCCC(=O)OC(C)C [compound 1001]
Result (1001 initially added 0.035 wt %): Clear/transparent
Result (1001 initially added 0.070 wt %): Clear/transparent
Result (1001 initially added 0.095 wt %): Clear/transparent
Result (1001 initially added 0.120 wt %): Pale yellow color
Result (1001 initially added 0.250 wt %): Yellow color
Result (1001 initially added 0.300 wt %): Yellow color
Result (1001 initially added 0.400 wt %): Yellow color
